Results on one compound are retold here after article PMC3438169 (PLoS ONE, 2012).

For one assay, the system named is HCT116. Kind of assay: Cell viability (CellTiter-Glo), HCT116 with siRNA or mEF-G1 variants. The format is cell-based, human. Conditions: 7 days. How it is done: (§1) HCT116 (ATCC, CCL-247) and RKO (ATCC, CRL-2577) cell lines were maintained in a humidified incubator at 37°C and 5% CO2 in RPMI1640 supplemented with 10% FBS. Cell viability was determined using the CellTiter-Glo luminescent cell viability assay (Promega). […] Subsequently, 40 µl of CellTiter-Glo reagent was added to each well and luminescence recorded on an Envision plate reader (Perkin Elmer). Each treatment condition was tested in triplicate and compared to an equivalent volume of DMSO as control.
(§2) Non-targeting (NT) or GFM1 siRNA pools were obtained from Dharmacon (ON-TARGETplus SMART pool D-001810 and L-013685). HCT116 and RKO cells were reverse transfected in 6-well plates using RNAiMax (Invitrogen) and 25 nM siRNA. After 2 days, cells were harvested by trypsinization and re-plated into 6-well plates for western blot analysis or into 384-well plates for compound treatments and cell viability determination using CellTiter-Glo as described above.
(§3) The human GFM1 cDNA (encoding mEF-G1, Table 2) was mutagenized in pENTR221 (Invitrogen) using QuikChangeII XL site-directed mutagenesis (Stratagene). The following point mutations were introduced: C1355T (encoding S452L), C1481T (encoding S494F) and T2078A (encoding L693Q). The GFM1 cDNAs were then subcloned into the mammalian expression vector pLenti4/TO/V5 using LR clonase II (Invitrogen) and sequence-verified. The pLenti4 constructs were then co-transfected with a lentiviral plasmid mix (encoding LP1, LP2 and VSV-G) into 293T cells, and viral particles were harvested after 72 h and used to infect HCT116 and RKO cells. Stable cell lines were generated by selection with 400 µg/ml Zeocin and plated into 6-well plates for western blot analysis or into 384-well plates for compound treatments and cell viability determination using CellTiter-Glo as described above.

Another assay concerns yeast (BY4741, BYΔ8). Briefly: Yeast susceptibility determination, wild-type and BYΔ8. Type of assay: cell-based, S. cerevisiae. The settings on record: for Activity against yeast (in words): rich medium with glucose. As to the method: (§4) Yeast strains used in this study are BY4741 [32] and strain BYΔ8, derived from BY4741 but deleted for eight genes involved in drug resistance (efflux pumps: snq2, pdr5, yor1; transcription factors: pdr1, pdr2, pdr3, yap1, yrm1). […] Starting OD600 was 0.1, total volume per well 120 µl. Plates were incubated at 30°C with 770 RPM orbital shaking.

Another assay deals with RKO. Briefly: Cell viability (CellTiter-Glo), RKO with siRNA or mEF-G1 variants. The format is cell-based, human. How it is done: as §1, §2, §3
Assay [1] relates to BYΔ8 strain with MEF1 mutations. Briefly: Yeast susceptibility determination, MEF1 mutants in BYΔ8 background. The format is cell-based, S. cerevisiae. The settings on record: Figure 2D: all argyrin B concentrations in the range tested. As to the method:
as §4
Strain BYΔ8 was incubated in 2.5% ethylmethanesulfonate until only 50% of the cells formed colonies. […] Amplifying the mutated MEF1 gene and transforming it into non-mutagenized BYΔ8 cells validated identified mutations in MEF1.

The subject of assay [2] is recombinant human mEF-G1 S494F. Briefly: Biacore binding, human mEF-G1 S494F. Conditions: 10, 20, 40 µM, HBS-P+ pH 7.4, 4% DMSO. From the text: GFM1 encoding the active site of EF-G1 (residues 36–751) was PCR amplified from pDONR221 constructs using primers (GGGGACAAGTTTGTACAAAAAAGCAGGCTTAATGTCTTCATCAGGGGTGATT, GGGGACCACTTTGTACAAGAAAGCTGGGTATTAGTTCTTGGCTTTTCC). P. aeroginosa fusA1 encoding full-length EF-G was PCR amplified from pET28a-PaEFG-Nhis using primers (GGGGACCACTTTGTACAAGAAAGCTGGGTATTATCAACCTTGTTTTTT, GGGGACAAGTTTGTACAAAAAAGCAGGCTTAATGGCCCGTACTACACCC). Purified PCR products were cloned into the pDONR221 vector using Gateway cloning and BP Clonase II (Invitrogen), shuttled into an E.coli protein expression vector for N-terminal tagging (Avitag-His6 vector) using LR Clonase II (Invitrogen), and verified by sequencing. Avitag-His6-hEF-G1 and Avitag-His6-PaEF-G constructs were transformed into BL21-AI cells (Invitrogen) and isolated single colonies were used to inoculate 5 ml cultures which were grown overnight at 37°C with shaking. […]. Briefly, protein was captured on column using binding buffer (50 mM Tris; pH 7.5, 300 mM NaCl, 20 mM imidazole, 10% glycerol), washed extensively with washing buffer (50 mM Tris; pH 7.5, 500 mM NaCl, 30 mM imidazole, 10% glycerol), and then eluted with elution buffer (50 mM Tris; pH 7.5, 500 mM NaCl, 250 mM imidazole, 10% glycerol). […]
(In SPR one partner is held on a chip, and binding of the other changes the refractive index at the surface.)

In a further assay the test system is P. aeruginosa. Briefly: Resistant mutant selection, P. aeruginosa. The settings on record: P. aeruginosa K767; solid medium containing 128 µg/ml argyrin B. Type of assay: cell-based. How it is done: Resistance frequencies were calculated as the number of CFU (mutants) on drug containing plates divided by the number of CFU plated. Whole genome sequencing was done as described previously. The fusA1 gene from P. aeruginosa was generated for sequencing in two parts, using primer pairs PAEFF1/PAEFR1: […]/[…] and EFF2/EFR1: […]/[…]. The fusA1 gene from B. multivorans was generated as a single band using BCEFGF1/BCEFGR1: […]/[…]. Nucleotide sequencing of the products was done by Agencourt (Beverly MA).

SMILES strings stand for the structures. *1 amine or outer side, *2 acyl side, *3 side chain or, on linkers, in order; H or OH if unused. Where a SMILES comes first, the peptide text is derived from it. [ ]: non-standard residue; d: D form. dAla(ψthiazole) = C[C@@H](N[*:1])c1nc(C(=O)[*:2])cs1; Trp(4-OMe) = COc1cccc2[nH]cc(C[C@H](N)C(=O)O)c12; dAbu = CC[C@@H](N)C(=O)O; Dha = C=C(N)C(=O)O; Sar = CNCC(=O)O

Turning to `C=C1NC(=O)CN(C)C(=O)CNC(=O)[C@H](Cc2c[nH]c3cccc(OC)c23)NC(=O)[C@H](Cc2c[nH]c3ccccc23)NC(=O)c2csc(n2)[C@@H](C)NC(=O)[C@@H](CC)NC1=O` [argyrin B] (cyclo([dAbu][dAla(ψthiazole)]W[Trp(4-OMe)]G[Sar][Dha])), the “Lowering of IC50 by knock down of mEF-G1” value in the assay with HCT116 (HCT116, GFM1 siRNA, CellTiter Glo) is reported as “circa 9.6 fold”; in the assay with RKO (GFM1 siRNA, 7 days, CellTiter Glo), around 3.3 fold. In addition, the “Decrease of susceptibility on expression of mEF-G1 L693Q” value in the assay with HCT116 (HCT116, mEF-G1 L693Q) is 4.7 fold; in the assay on RKO (mEF-G1 L693Q, 7 days), 7 fold. The “Sensitivity change on expression of mEF-G1 S452L and S494F (in words)” value in the assay on HCT116 (HCT116, mEF-G1 S452L and S494F) is on record as “only marginal effects”; in the assay with RKO (mEF-G1 S452L and S494F, 7 days), “only marginal effects”. The “Sensitivity change on overexpression of mEF-G1 WT (in words)” value in the assay on HCT116 (HCT116, mEF-G1 WT stable overexpression) is given as “did not alter the argyrin B-sensitivity”; in the assay on RKO (mEF-G1 WT stable overexpression, 7 days), “did not alter the argyrin B-sensitivity”. In addition, the “Activity against yeast (in words)” value with yeast (BY4741, BYΔ8) (BYΔ8 (strain CMB970, eight genes involved in efflux deleted)) is “inactive”; in the assay on yeast (BY4741, BYΔ8) (wild-type yeast (BY4741)), “inactive”. The “Inhibitory activity on glucose-grown yeast (in words)” value with yeast (BY4741, BYΔ8) (glucose-grown yeast) is recorded as “lack of inhibitory activity”. Besides, the “Sensitivity under hypoxic culture conditions (in words)” value in the assay with RKO (hypoxia, data not shown) is “became less sensitive”. Also, in assay [1], the “Inhibition of the wild-type (MEF1wt) strain (in words)” value is “full inhibiton of the wild-type strain”. The “Binding to human mEF-G1 (in words)” value in assay [2] is listed as “still bound”. In addition, in the assay on P. aeruginosa, the “frequency of mutants with decreased susceptibility” value is given as “circa 5×10^−8”.
